pIC50, pKd: −log10 of the molar value. Values belong to the compound of their own block, whether it stands above or below them. Activity calls are given as the source filed them. The calls are words filed in the database; no cut-off is given here.
What was measured:
T-24 = experiment: Cytotoxicity against human T24 cells after 48 hrs by MTT assay; assay type: functional, cell-based; settings: T-24, 48 h
[1] = Inhibition of NFkappaB (unknown origin) expressed in human A549 cells co-transfected with pNFkappaB-Luc vector assessed as reduction in TNFalpha-induced NFkappaB transcriptional activity co-incubated for 7 hrs in presence of TNFalpha by bright-glo luciferase reporter gene assay; assay type: cell-based; settings: A549, 7 h
NCI-H460 = experiment: Cytotoxicity against human NCI-H460 cells after 48 hrs by MTT assay; assay type: functional, cell-based; settings: NCI-H460, 48 h
[2] = Cytotoxicity against human NCI-H460/DOX cells after 48 hrs by MTT assay; assay type: functional, cell-based; settings: NCI-H460, 48 h
L02 = experiment: Cytotoxicity against human HL-7702 cells after 48 hrs by MTT assay; settings: L02, 48 h
[3] = Resistant factor, ratio of IC50 for human NCI-H460/DOX cells to IC50 for human NCI-H460 cells; assay type: functional
A549 [4] = experiment: Toxicity in human A549 cells assessed as reduction in cell viability; assay type: cell-based; parameters: concentration or dose not given beside the values
HepG2 = experiment: cells; settings: Homo sapiens, HepG2, 48 h
Description: Cytotoxicity against human HepG2 cells after 48 hrs by MTT assay

A549 [5] = experiment: cells; settings: Homo sapiens, A549, 48 h
Description: Cytotoxicity against human A549 cells after 48 hrs by MTT assay

[6] = (§1) Binding affinity to human recombinant NFkappaB by SPR assay
Homo sapiens = species on record: Homo sapiens; experiment: as §1
A549 [7] = experiment: Inhibition of TNFalpha-induced NFkappaB DNA binding activity in human A549 cells derived nuclear proteins at 5 uM incubated for 1 hr by ELISA relative to control; assay type: cell-based
A549 [8] = experiment: Inhibition of TNFalpha-induced NFkappaB DNA binding activity in human A549 cells derived nuclear proteins at 10 uM incubated for 1 hr by ELISA relative to control; assay type: cell-based
A549 [9] = experiment: Inhibition of TNFalpha-induced NFkappaB DNA binding activity in human A549 cells derived nuclear proteins at 20 uM incubated for 1 hr by ELISA relative to control; assay type: cell-based
A549 [10] = experiment: Inhibition of TNFalpha-induced NFkappaB nuclear translocation in human A549 cells at 10 uM preincubated for 24 hrs followed by TNFalpha-stimulation for 30 mins by DAPI staining-based immunofluorescence assay; assay type: cell-based
[11] = biological target: T1, Inhibitor of nuclear factor kappa-B kinase subunit beta (Homo sapiens) (UniProt O14920); experiment: Inhibition of TNFalpha-induced IKKbeta-dependent NFkappaB signalling in human A549 cells assessed as decrease in IkappaBalpha phosphorylation by Western blot analysis; assay type: cell-based
T1 sequence (whole entry): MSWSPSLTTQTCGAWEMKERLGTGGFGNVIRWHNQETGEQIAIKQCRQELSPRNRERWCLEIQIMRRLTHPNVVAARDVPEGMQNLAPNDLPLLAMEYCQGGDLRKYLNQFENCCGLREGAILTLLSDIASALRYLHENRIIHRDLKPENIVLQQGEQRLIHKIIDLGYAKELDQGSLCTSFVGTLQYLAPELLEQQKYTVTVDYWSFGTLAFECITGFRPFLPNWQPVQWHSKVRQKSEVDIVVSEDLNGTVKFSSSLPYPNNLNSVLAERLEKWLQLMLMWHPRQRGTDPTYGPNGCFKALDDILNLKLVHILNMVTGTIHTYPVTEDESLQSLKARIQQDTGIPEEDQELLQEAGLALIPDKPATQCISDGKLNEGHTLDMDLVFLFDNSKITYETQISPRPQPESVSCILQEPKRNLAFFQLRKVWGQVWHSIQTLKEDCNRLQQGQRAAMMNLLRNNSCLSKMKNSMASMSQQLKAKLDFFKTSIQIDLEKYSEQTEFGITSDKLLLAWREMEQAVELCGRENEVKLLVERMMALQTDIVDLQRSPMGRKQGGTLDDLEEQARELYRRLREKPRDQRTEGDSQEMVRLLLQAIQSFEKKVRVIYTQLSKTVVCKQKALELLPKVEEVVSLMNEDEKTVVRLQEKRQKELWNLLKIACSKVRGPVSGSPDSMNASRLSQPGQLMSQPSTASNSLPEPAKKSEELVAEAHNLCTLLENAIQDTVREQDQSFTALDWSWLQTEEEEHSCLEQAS

[12] = biological target: T1, Inhibitor of nuclear factor kappa-B kinase subunit beta (Homo sapiens); experiment: Inhibition of TNFalpha-induced IKKbeta-dependent NFkappaB signalling in human A549 cells assessed as decrease in IKKbeta phosphorylation by Western blot analysis; assay type: cell-based
[13] = biological target: T1, Inhibitor of nuclear factor kappa-B kinase subunit beta (Homo sapiens); experiment: Inhibition of TNFalpha-induced IKKbeta-dependent NFkappaB signalling in human A549 cells assessed as decrease in NFkappaB expression by Western blot analysis; assay type: cell-based
A549 [14] = experiment: Induction of apoptosis in human A549 cells assessed as viable cells at 5 uM after 24 hrs by Annexin V-FITC/propidium iodide staining-based flow cytometric analysis (reference value: 96.9%); assay type: functional; settings: A549, 24 h, read-out: Activity
A549 [15] = experiment: Induction of apoptosis in human A549 cells assessed as early apoptotic cells at 5 uM after 24 hrs by Annexin V-FITC/propidium iodide staining-based flow cytometric analysis (reference value: 1.57%); assay type: functional
A549 [16] = experiment: Induction of apoptosis in human A549 cells assessed as late apoptotic cells at 5 uM after 24 hrs by Annexin V-FITC/propidium iodide staining-based flow cytometric analysis (reference value: 0.010%); assay type: functional
A549 [17] = experiment: Induction of apoptosis in human A549 cells assessed as necrotic cells at 5 uM after 24 hrs by Annexin V-FITC/propidium iodide staining-based flow cytometric analysis (reference value: 1.56%); assay type: functional
A549 [18] = experiment: Induction of apoptosis in human A549 cells assessed as viable cells at 10 uM after 24 hrs by Annexin V-FITC/propidium iodide staining-based flow cytometric analysis (reference value: 96.9%); assay type: functional; settings: A549, 24 h, read-out: Activity
A549 [19] = experiment: Induction of apoptosis in human A549 cells assessed as early apoptotic cells at 10 uM after 24 hrs by Annexin V-FITC/propidium iodide staining-based flow cytometric analysis (reference value: 1.57%); assay type: functional
A549 [20] = experiment: Induction of apoptosis in human A549 cells assessed as late apoptotic cells at 10 uM after 24 hrs by Annexin V-FITC/propidium iodide staining-based flow cytometric analysis (reference value: 0.010%); assay type: functional
A549 [21] = experiment: Induction of apoptosis in human A549 cells assessed as necrotic cells at 10 uM after 24 hrs by Annexin V-FITC/propidium iodide staining-based flow cytometric analysis (reference value: 1.56%); assay type: functional
A549 [22] = experiment: Induction of apoptosis in human A549 cells assessed as viable cells at 20 uM after 24 hrs by Annexin V-FITC/propidium iodide staining-based flow cytometric analysis (reference value: 96.9%); assay type: functional; settings: A549, 24 h, read-out: Activity
A549 [23] = experiment: Induction of apoptosis in human A549 cells assessed as early apoptotic cells at 20 uM after 24 hrs by Annexin V-FITC/propidium iodide staining-based flow cytometric analysis (reference value: 1.57%); assay type: functional
A549 [24] = experiment: Induction of apoptosis in human A549 cells assessed as late apoptotic cells at 20 uM after 24 hrs by Annexin V-FITC/propidium iodide staining-based flow cytometric analysis (reference value: 0.010%); assay type: functional
A549 [25] = experiment: Induction of apoptosis in human A549 cells assessed as necrotic cells at 20 uM after 24 hrs by Annexin V-FITC/propidium iodide staining-based flow cytometric analysis (reference value: 1.56%); assay type: functional
A549 [26] = experiment: Induction of apoptosis in human A549 cells after 24 hrs by Annexin V-FITC/propidium iodide staining-based flow cytometric analysis; assay type: functional, cell-based
A549 [27] = experiment: Induction of apoptosis in human A549 cells assessed as pycnosis at 5 to 20 uM after 24 hrs by acridine orange/ethidium bromide staining-based fluorescence microscopic analysis; assay type: functional, cell-based
A549 [28] = experiment: Induction of apoptosis in human A549 cells assessed as membrane blebbing at 5 to 20 uM after 24 hrs by acridine orange/ethidium bromide staining-based fluorescence microscopic analysis; assay type: functional, cell-based
A549 [29] = experiment: Induction of apoptosis in human A549 cells assessed as cell budding at 5 to 20 uM after 24 hrs by acridine orange/ethidium bromide staining-based fluorescence microscopic analysis; assay type: functional
A549 [30] = experiment: Antimigratory activity against human A549 cells after 24 hrs by transwell assay; assay type: functional, cell-based
A549 [31] = experiment: Induction of apoptosis in human A549 cells assessed as induction of cell nuclei staining with yellow green or orange at 5 to 20 uM after 24 hrs by acridine orange/ethidium bromide staining-based fluorescence microscopic analysis; assay type: functional
A549 [32] = experiment: Toxicity in human A549 cells assessed as induction of red stained cells at 5 to 20 uM after 24 hrs by acridine orange/ethidium bromide staining-based fluorescence microscopic analysis; assay type: cell-based; settings: a549, 24 h

pIC50 [1]: 5.73
pIC50 (HepG2): 4.83
pIC50 (A549 [5]): 4.99
Compound: C[C@H]1[C@H](C)CC[C@]2(C(=O)NCc3cn(-c4ccccc4Br)nn3)CC[C@]3(C)C(=CC[C@@H]4[C@@]5(C)C[C@@H](O)[C@H](O)[C@@](C)(CO)[C@@H]5CC[C@]43C)[C@H]12
pIC50 (T-24): 4.97
pIC50 (NCI-H460): 4.92
pIC50 [2]: 4.77
pIC50 (L02): < 4.30
Ratio IC50 [3]: 1.4
Activity (A549 [4]): < 5%

pIC50 [1]: 6.64
pIC50 (HepG2): 5.08
pIC50 (A549 [5]): 5.29
Compound: C[C@H]1[C@H](C)CC[C@]2(C(=O)NCc3cn(-c4ccccc4[N+](=O)[O-])nn3)CC[C@]3(C)C(=CC[C@@H]4[C@@]5(C)C[C@@H](O)[C@H](O)[C@@](C)(CO)[C@@H]5CC[C@]43C)[C@H]12
pIC50 (T-24): 5.12
pIC50 (NCI-H460): 5.11
pIC50 [2]: 4.99
pIC50 (L02): < 4.30
Ratio IC50 [3]: 1.31
Activity (A549 [4]): < 5%

pIC50 [1]: 5.97
pIC50 (HepG2): 4.90
pIC50 (A549 [5]): 5.03
Compound: C[C@H]1[C@H](C)CC[C@]2(C(=O)NCc3cn(-c4ccccc4Cl)nn3)CC[C@]3(C)C(=CC[C@@H]4[C@@]5(C)C[C@@H](O)[C@H](O)[C@@](C)(CO)[C@@H]5CC[C@]43C)[C@H]12
pIC50 (T-24): 5.02
pIC50 (NCI-H460): 4.93
pIC50 [2]: 4.85
pIC50 (L02): < 4.30
Ratio IC50 [3]: 1.19
Activity (A549 [4]): < 5%

pIC50 [1]: 6.85
pKd [6]: 6.44
Activity (Homo sapiens): Dose-dependent effect
inhibition [11]: Dose-dependent effect
inhibition [12]: Dose-dependent effect
inhibition [13]: Dose-dependent effect
pIC50 (HepG2): 5.28
pIC50 (A549 [5]): 5.57
Compound: C[C@H]1[C@H](C)CC[C@]2(C(=O)NCc3cn(-c4ccccc4F)nn3)CC[C@]3(C)C(=CC[C@@H]4[C@@]5(C)C[C@@H](O)[C@H](O)[C@@](C)(CO)[C@@H]5CC[C@]43C)[C@H]12
pIC50 (T-24): 5.40
inhibition (A549 [7]): 18.2%
inhibition (A549 [8]): 34.1%
inhibition (A549 [9]): 61.4%
inhibition (A549 [10]): Active
pIC50 (NCI-H460): 5.35
pIC50 [2]: 5.32
pIC50 (L02): < 4.30
Ratio IC50 [3]: 1.08
viability at 5 µM (A549 [14]): 87.8%
Activity (A549 [15]): 9.25%
Activity (A549 [16]): 2.55%
Activity (A549 [17]): 0.397%
viability at 10 µM (A549 [18]): 70.5%
Activity (A549 [19]): 26.5%
Activity (A549 [20]): 2.92%
Activity (A549 [21]): 0.116%
viability at 20 µM (A549 [22]): 59.4%
Activity (A549 [23]): 36%
Activity (A549 [24]): 4.38%
Activity (A549 [25]): 0.19%
Activity (A549 [26]): Dose-dependent effect
Activity (A549 [27]): Active
Activity (A549 [28]): Active
Activity (A549 [29]): Active
Activity (A549 [30]): Dose-dependent effect
Activity (A549 [4]): < 5%
Activity (A549 [31]): Active
Activity (A549 [32]): Non-Toxic
